Results reported in PubChem BioAssay (NCI).
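Tested at 5 concentrations; 48 h exposure; 96-well plates; endpoints linearly interpolated, else capped at highest concentration. GI50 = concentration required for 50% inhibition of growth. The concentration for full growth arrest is given as TGI.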

Tests used:
Test in all cases: NCI-60 cell line screen, 48 h
[1] = test system: DU-145 prostate
[2] = test system: MCF7 breast
[3] = test system: MDA-MB-435
[4] = test system: NCI-H522 lung
[5] = test system: NCI/ADR-RES ovarian
[6] = test system: SF-268 CNS
[7] = test system: SF-295 CNS
[8] = test system: SK-MEL-2 melanoma
[9] = test system: SNB-19 CNS
[10] = test system: HCC-2998 colon

Row | Compound | TGI [1] | TGI [2] | TGI [3] | TGI [4] | TGI [5] | TGI [6] | TGI [7] | TGI [8] | TGI [9] | TGI [10] | GI50 [1] | GI50 [10] | GI50 [3] | GI50 [4] | GI50 [5] | GI50 [6] | GI50 [8]
1 | Cc1ccc(S(=O)(=O)N2CCc3cc(O)c([N+](=O)[O-])cc32)cc1 | > 100 µM | > 100 µM | > 100 µM | > 100 µM | > 100 µM | > 100 µM | > 100 µM | > 100 µM | > 100 µM | – | – | – | – | – | – | – | –
2 | Oc1ccc(C[C@@H]2CN[C@H](Cc3ccc(O)c(Br)c3)CN2)cc1 | > 100 µM | > 100 µM | > 100 µM | > 100 µM | > 100 µM | > 100 µM | > 100 µM | > 100 µM | – | > 100 µM | – | – | – | – | – | – | –
3 | CC1OC2OC3C(OCC(O)C3O)OC(=O)[C@]34CCC(C)(C)CC3C3=CCC5[C@@]6(C)C[C@H](O)[C@H](OC7OC(CO)C(O)C(O)C7OC7OC(COC(=O)CC(C)(O)CC(=O)OC1C(OC1OC(CO)C(O)C(O)C1O)C2O)C(O)C(O)C7O)[C@@](C)(CO)C6CC[C@@]5(C)[C@]3(C)CC4 (stereo not given in full) | 8.51 µM | – | 4.71 µM | 5.89 µM | 11.7 µM | 10.5 µM | 3.72 µM | 3.37 µM | 16 µM | 2.65 µM | – | – | – | – | – | – | –
4 | CCOP(=O)(COCCn1nc(Br)c(=O)[nH]c1=O)OCC | > 100 µM | > 100 µM | > 100 µM | > 100 µM | > 100 µM | > 100 µM | – | > 100 µM | > 100 µM | > 100 µM | – | – | – | – | – | – | –
5 | COc1cc(/C=C2/C(=O)N(C(=O)c3ccccc3O)N=C2C)ccc1O | > 100 µM | > 100 µM | > 100 µM | – | > 100 µM | > 100 µM | > 100 µM | > 100 µM | > 100 µM | > 100 µM | – | – | – | – | – | – | –
6 | CC12CCC(=O)[C@@]1(C)CCCC2=O (stereo not given in full) | > 100 µM | > 100 µM | – | > 100 µM | > 100 µM | > 100 µM | > 100 µM | > 100 µM | > 100 µM | > 100 µM | – | – | – | – | – | – | –
7 | CC1=CC(O)CC(C)(C)C1/C=C/C(C)=C/C=C/C(C)=C/C=C/C=C(C)/C=C/C=C(C)/C=C/C1=C(C)CC(O)CC1(C)C (stereo not given) | > 100 µM | 77.7 µM | 33.9 µM | 30 µM | 59.8 µM | – | 58.4 µM | 68.8 µM | > 100 µM | > 100 µM | – | – | – | – | – | – | –
8 | NC(=O)c1ncn(C2OC(CO)C(O)C2O)c1NC(=S)NC(=O)c1ccccc1 (stereo not given) | – | – | – | > 100 µM | – | > 100 µM | > 100 µM | > 100 µM | > 100 µM | > 100 µM | – | – | – | – | – | – | –
9 | O=C(O)C(CS)N=Cc1nc(-c2ccccc2)oc1O (stereo not given) | – | – | – | > 100 µM | – | > 100 µM | > 100 µM | > 100 µM | > 100 µM | > 100 µM | – | – | – | – | – | – | –
10 | CC(=O)Oc1ccc2c(c1)O/C(=C\c1ccc(O)cc1)C2=O | > 100 µM | > 100 µM | > 100 µM | > 100 µM | > 100 µM | > 100 µM | > 100 µM | – | > 100 µM | > 100 µM | – | – | – | – | – | – | –
11 | Nc1cc2nc(-c3ccccc3)cn2cn1 | > 100 µM | > 100 µM | > 100 µM | – | > 100 µM | > 100 µM | > 100 µM | > 100 µM | > 100 µM | – | – | – | – | – | – | – | –
12 | Cc1ccc(N2C(=O)/C(=C3\Sc4c(nc(C)n(C)c4=O)N3c3ccccc3)SC2=S)cc1 | – | – | – | > 100 µM | – | > 100 µM | > 100 µM | > 100 µM | > 100 µM | > 100 µM | – | – | – | – | – | – | –
13 | O=C(O)Cn1c[n+](NC(=O)Cc2ccccc2)cn1 | > 10 µM | > 10 µM | > 10 µM | > 10 µM | > 10 µM | > 10 µM | > 10 µM | – | > 10 µM | > 10 µM | – | – | – | – | – | – | –
14 | COc1ccc(CCn2ccc(=O)c(O)c2C)cc1OC | 43 µM | 61.5 µM | > 100 µM | – | 57.9 µM | 9.92 µM | > 100 µM | – | > 100 µM | – | – | – | – | – | – | – | –
15 | CC1=NN(c2cccc(Cl)c2)C2(C1=Cc1ccc(N(C)C)cc1)C(Cl)C(=O)N2c1nc2ccccc2s1 (stereo not given) | > 100 µM | > 100 µM | 72.3 µM | 43.1 µM | > 100 µM | 52.4 µM | > 100 µM | > 100 µM | – | 41.8 µM | – | – | – | – | – | – | –
16 | CC(=O)OC1COC(N2c3ccccc3[C@@H]3CCc4c([nH]c5ccccc45)[C@@H]32)C(OC(C)=O)C1OC(C)=O (mixture of isomers) | > 100 µM | – | > 100 µM | > 100 µM | – | > 100 µM | > 100 µM | > 100 µM | > 100 µM | > 100 µM | – | – | – | – | – | – | –
17 | O=C1c2cc3c(cc2-c2c1c1cc(F)c(F)cc1c(=O)n2C[C@H](O)CO)OCO3 | > 100 µM | – | 0.422 µM | 0.48 µM | 0.468 µM | > 100 µM | – | 0.625 µM | – | 11.2 µM | 0.0407 µM | 0.14 µM | 0.125 µM | 0.0232 µM | 0.0396 µM | 0.0411 µM | 0.243 µM
18 | O=C1CN(c2ccccc2)C(=O)C1C(=O)Nc1ccc(Cl)c(Cl)c1 (stereo not given) | – | – | – | 6.48 µM | – | 21.2 µM | 14 µM | – | 17.2 µM | – | – | – | – | – | – | – | –

Row | Compound | TGI [1] | TGI [2] | TGI [3] | TGI [4] | TGI [5] | TGI [6] | TGI [7] | TGI [8] | TGI [9] | TGI [10] | GI50 [1] | GI50 [10] | GI50 [3] | GI50 [4] | GI50 [5] | GI50 [6] | GI50 [8]
19 | CC1=[N+]([O-])C2(CCCC2)N(O)C1(C)C | > 100 µM | > 100 µM | > 100 µM | – | > 100 µM | > 100 µM | > 100 µM | > 100 µM | > 100 µM | > 100 µM | – | – | – | – | – | – | –
20 | CCOP(=O)(CC1OC(CO)C(O)C1O)OCC (stereo not given) | > 100 µM | > 100 µM | > 100 µM | > 100 µM | – | > 100 µM | > 100 µM | > 100 µM | > 100 µM | > 100 µM | – | – | – | – | – | – | –
21 | Fc1ccc(OCc2ccc3nc(-c4ccccc4)c(Cl)nc3c2)cc1 | > 100 µM | > 100 µM | > 100 µM | 24.4 µM | > 100 µM | > 100 µM | 50.3 µM | > 100 µM | – | > 100 µM | – | – | – | – | – | – | –
22 | CC(Br)CN(CC(C)Br)c1ccc2c(c1)Cc1ccccc1-2 (stereo not given) | 23 µM | 19.6 µM | 28 µM | 21.2 µM | 38.4 µM | 23.3 µM | 22.6 µM | 29.6 µM | 27.9 µM | – | – | – | – | – | – | – | –
23 | CN1C2CCC1C(CO)C(=O)C2 (stereo not given) | > 100 µM | 56.5 µM | > 100 µM | 34.2 µM | > 100 µM | > 100 µM | > 100 µM | > 100 µM | – | > 100 µM | – | – | – | – | – | – | –
24 | CCc1nc2c([nH]1)C(=O)c1ccccc1C2=O | – | – | – | > 100 µM | – | > 100 µM | > 100 µM | > 100 µM | > 100 µM | > 100 µM | – | – | – | – | – | – | –
25 | C[C@@](Br)(C(=O)O)[C@H](Br)C(=O)O | > 100 µM | > 100 µM | > 100 µM | – | > 100 µM | > 100 µM | > 100 µM | – | > 100 µM | > 100 µM | – | – | – | – | – | – | –
26 | CC(=O)Nc1ccc2c(c1)nc1c3ccccc3ccn21 | > 100 µM | > 100 µM | > 100 µM | > 100 µM | > 100 µM | > 100 µM | > 100 µM | > 100 µM | > 100 µM | – | – | – | – | – | – | – | –
27 | Cc1cccc2c(N)c3cccc(C(=O)NCC[N+](C)(C)[O-])c3nc12 | > 100 µM | > 100 µM | 41.5 µM | – | > 100 µM | > 100 µM | 45.4 µM | > 100 µM | > 100 µM | 24.5 µM | – | – | – | – | – | – | –
28 | Cn1c(=O)c2[nH]c(Nc3cccc(Cl)c3)nc2n(C)c1=O | > 10 µM | > 10 µM | > 10 µM | – | – | > 10 µM | > 10 µM | – | – | > 10 µM | – | – | – | – | – | – | –
29 | CN(C)C(=O)/N=C1\SC(=Nc2ccccc2)C(=Nc2ccccc2)N1c1ccc([N+](=O)[O-])cc1 | > 100 µM | > 100 µM | > 100 µM | > 100 µM | > 100 µM | – | > 100 µM | > 100 µM | > 100 µM | > 100 µM | – | – | – | – | – | – | –
30 | O=c1cccc2n1CC1CNCC2C1 (stereo not given) | > 100 µM | > 100 µM | > 100 µM | – | > 100 µM | > 100 µM | > 100 µM | > 100 µM | > 100 µM | > 100 µM | – | – | – | – | – | – | –
31 | CCC(C)C(NC(=O)C(CCCC[N+](=N)N)NC(=O)C(CCCC[N+](=N)N)NC(=O)c1ccc(OC)cc1)C(=O)NC(CCCC[N+](=N)N)C(=O)N1CCCC1C(=O)NC(CCCCN)C(=O)NC(CC(C)C)C(N)=O (stereo not given) | > 100 µM | > 100 µM | > 100 µM | > 100 µM | > 100 µM | > 100 µM | > 100 µM | – | > 100 µM | > 100 µM | – | – | – | – | – | – | –
32 | CN(C)CN1C(=O)/C(=N\n2c(-c3ccncc3)n[nH]c2=S)c2ccccc21 | 81.6 µM | > 100 µM | 30.2 µM | 45.1 µM | > 100 µM | > 100 µM | > 100 µM | 50.5 µM | > 100 µM | – | – | – | – | – | – | – | –
33 | O=c1n(CCCN2CCOCC2)nc2n1-c1ccc3ccccc3c1SC2 | > 100 µM | > 100 µM | > 100 µM | 52.3 µM | > 100 µM | – | 42.1 µM | > 100 µM | > 100 µM | – | – | – | – | – | – | – | –
34 | OCCN(CCO)c1ncnc2c1sc(=S)n2-c1ccccc1 | – | – | – | > 100 µM | – | > 100 µM | > 100 µM | > 100 µM | > 100 µM | > 100 µM | – | – | – | – | – | – | –
35 | CC(=O)N=S(NC(=O)c1ccc(C)cc1)C(Cl)(Cl)Cl (stereo not given) | > 100 µM | > 100 µM | 40.7 µM | – | 49.1 µM | > 100 µM | > 100 µM | – | > 100 µM | 30.5 µM | – | – | – | – | – | – | –
